Source: patent US7098209B2, “Pyrazino [1'2':1,6 ] pyrido [3, 4-b] indole-1,4-dione derivatives” (Lilly Icos LLC, priority 2001, dated 2006)
pIC50: −log10 of the molar value.

Key:
[1] = biological target: recombinant human PDE5 (Homo sapiens, UniProt O76074); assay: Inhibitory effect on cGMP-PDE (PDE5 IC50 determination); type: biochemical; conditions: in vitro
Protocol: The compounds of structural formula (I) were tested for an ability to inhibit PDE5. The ability of a compound to inhibit PDE5 activity is related to the IC50 value for the compound, i.e., the concentration of inhibitor required for 50% inhibition of enzyme activity. The IC50 value for compounds of structural formula (I) were determined using recombinant human PDE5.
Phosphodiesterase activity of the preparations was determined as follows. PDE assays utilizing a charcoal separation technique were performed essentially as described in Loughney et al. (1996). In this assay, PDE activity converts [32P]cAMP or [32P]cGMP to the corresponding [32P]5′-AMP or [32P]5′-GMP in proportion to the amount of PDE activity present. The [32P]5′-AMP or [32P]5′-GMP then was quantitatively converted to free [32P]phosphate and unlabeled adenosine or guanosine by the action of snake venom 5′-nucleotidase. […] The assay was performed at 30° C. in a 100 μL reaction mixture containing (final concentrations) 40 mM Tris HCl (pH 8.0), 1 μM ZnSO4, 5 mM MgCl2, and 0.1 mg/mL bovine serum albumin (BSA). PDE enzyme was present in quantities that yield <30% total hydrolysis of substrate (linear assay conditions). The assay was initiated by addition of substrate ([…] [32P]cAMP or cGMP), and the mixture was incubated for 12 minutes. seventy-five (75) μg of Crotalus atrox venom then was added, and the incubation was continued for 3 minutes (15 minutes total). The reaction was stopped by addition of 200 μL of activated charcoal (25 mg/mL suspension in 0.1 M NaH2PO4, pH 4). After centrifugation (750×g for 3 minutes) to sediment the charcoal, a sample of the supernatant was taken for radioactivity determination in a scintillation counter and the PDE activity was calculated.
cGMP-PDE activity of compounds of the present invention was measured using a one-step assay adapted from Wells et al., Biochim. Biophys. Acta, 384, 430 (1975). The reaction medium contained 50 mM Tris-HCl, pH 7.5, 5 mM magnesium acetate, 250 μg/ml 5′-Nucleotidase, 1 mM EGTA, and 0.15 μM 8-[H^3]-cGMP. Unless otherwise indicated, the enzyme used was a human recombinant PDE5 (ICOS Corp., Bothell, Wash.).
Compounds of the invention were dissolved in DMSO finally present at 2% in the assay.

| SMILES | melting point | pIC50 [1] |
| --- | --- | --- |
| CN1CC(=O)N2[C@H](c3ccc4c(c3)OCO4)c3c(c4ccccc4n3Cc3ccccc3)C[C@H]2C1=O [Example 3, (6R,12aS)-6-Benzo[1,3]dioxol-5-yl-7-benzyl-2-methyl-2,3,6,7,12,12a-hexahydropyrazino-[1′,2′:1,6]pyrido[3,4-b]indole-1,4-dione] | 110 to 145 °C | 6.50 |
| CN1CC(=O)N2[C@H](c3ccc4c(c3)OCO4)c3c(c4ccccc4n3C)C[C@H]2C1=O [Example 1, (6R,12aS)-6-Benzo[1,3]dioxol-5-yl-2,7-dimethyl-2,3,6,7,12,12a-hexahydropyrazino[1′,2′:1,6]-pyrido[3,4-b]indole-1,4-dione] | 386 to 387 °C | 6.91 |
| CN1CC(=O)N2[C@H](c3ccc4c(c3)OCO4)c3c(c4ccccc4n3C)C[C@@H]2C1=O [Example 2, (6R,12aR)-6-Benzo[1,3]dioxol-5-yl-2,7-dimethyl-2,3,6,7,12,12a-hexahydropyrazino[1′,2′:1,6]-pyrido[3,4-b]indole-1,4-dione] |  | 6.24 |
| CC(=O)n1c2c(c3ccccc31)C[C@@H]1C(=O)N(C)CC(=O)N1[C@@H]2c1ccc2c(c1)OCO2 [Example 4, (6R,12aR)-7-Acetyl-6-benzo[1,3]dioxol-5-yl-2-methyl-2,3,6,7,12,12a-hexahydropyrazino-[1′,2′:1,6]pyrido[3,4-b]indole-1,4-dione] | 145 to 159 °C | 8.15 |
